Patent publication US20170081347A1, “FUNCTIONALIZED AZABORINE COMPOUNDS AND AZABORINE-CONTAINING BIARYLCARBOXAMIDES, AND COMPOSITIONS AND METHODS THEREOF” (The Trustees of Boston College, priority 2014, published 2017)
≈ marks a conversion by molar mass, not a printed value. Read-outs that look alike come from different tables or passages of the source.

Tests used:
Solubility pH = 6.8 = type: physicochemical; conditions: aqueous buffer
[1] = Solubility FASSIF (fasted state simulated intestinal fluid); type: physicochemical
CYP3A4 = CYP3A4 (Homo sapiens, UniProt P08684); experiment: CYP3A4 (Cytochrome P450 3A4); type: in vitro ADME
hERG = hERG (Homo sapiens, UniProt Q12809); experiment: hERG
LogD = type: physicochemical
[2] = PAMPA (parellel artificial membrane permeability assay); type: in vitro ADME; parameters: unit not given here
RLM Cl = type: in vitro ADME
Dopamine D3 = Dopamine D3 (Homo sapiens, UniProt P35462); experiment: Dopamine D3 antagonist; type: biochemical
Method: (§1) Bioactivity and ADME testing were performed for certain compounds of the invention.

Dopamine D2 = Dopamine D2 (Homo sapiens, UniProt P14416); experiment: Dopamine D2 antagonist; type: biochemical
CDK2 = CDK2 (Homo sapiens, UniProt P24941); experiment: CDK2 inhibitor; type: biochemical
PPARγ = biological target: T1, PPARγ (Homo sapiens, UniProt P37231); experiment: PPARγ antagonist; type: biochemical
T1 sequence (P37231 1-505): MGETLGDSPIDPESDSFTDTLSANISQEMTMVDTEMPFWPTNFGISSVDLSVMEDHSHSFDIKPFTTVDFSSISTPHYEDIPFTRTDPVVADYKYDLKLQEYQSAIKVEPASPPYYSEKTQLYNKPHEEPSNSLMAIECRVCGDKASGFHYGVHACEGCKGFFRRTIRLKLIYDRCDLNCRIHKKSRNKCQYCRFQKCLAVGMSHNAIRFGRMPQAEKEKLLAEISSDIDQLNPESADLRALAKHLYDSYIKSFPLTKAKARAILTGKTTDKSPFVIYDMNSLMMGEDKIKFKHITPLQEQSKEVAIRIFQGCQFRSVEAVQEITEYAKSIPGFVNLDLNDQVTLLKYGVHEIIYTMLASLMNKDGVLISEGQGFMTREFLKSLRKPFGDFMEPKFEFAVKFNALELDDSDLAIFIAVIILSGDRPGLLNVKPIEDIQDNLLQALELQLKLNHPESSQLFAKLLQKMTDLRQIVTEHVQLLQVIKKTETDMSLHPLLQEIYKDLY

PPARδ = biological target: T2, PPARδ (Homo sapiens, UniProt Q03181); experiment: PPARδ antagonist; type: biochemical
T2 sequence (Q03181 1-441): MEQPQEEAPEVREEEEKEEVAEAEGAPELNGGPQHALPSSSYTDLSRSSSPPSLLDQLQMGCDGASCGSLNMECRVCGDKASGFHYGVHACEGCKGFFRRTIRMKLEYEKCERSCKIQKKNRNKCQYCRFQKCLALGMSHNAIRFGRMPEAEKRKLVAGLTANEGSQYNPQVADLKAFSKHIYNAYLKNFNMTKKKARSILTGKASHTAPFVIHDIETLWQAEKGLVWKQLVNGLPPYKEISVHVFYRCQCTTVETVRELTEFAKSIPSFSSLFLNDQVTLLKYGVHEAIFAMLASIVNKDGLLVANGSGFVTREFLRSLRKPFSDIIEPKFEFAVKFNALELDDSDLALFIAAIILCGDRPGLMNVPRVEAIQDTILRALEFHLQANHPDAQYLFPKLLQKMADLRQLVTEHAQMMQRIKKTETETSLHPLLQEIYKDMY

PPARα = biological target: T3, PPARα (Homo sapiens, UniProt Q07869); experiment: PPARα inverse agonist; type: biochemical
T3 sequence (Q07869 1-468): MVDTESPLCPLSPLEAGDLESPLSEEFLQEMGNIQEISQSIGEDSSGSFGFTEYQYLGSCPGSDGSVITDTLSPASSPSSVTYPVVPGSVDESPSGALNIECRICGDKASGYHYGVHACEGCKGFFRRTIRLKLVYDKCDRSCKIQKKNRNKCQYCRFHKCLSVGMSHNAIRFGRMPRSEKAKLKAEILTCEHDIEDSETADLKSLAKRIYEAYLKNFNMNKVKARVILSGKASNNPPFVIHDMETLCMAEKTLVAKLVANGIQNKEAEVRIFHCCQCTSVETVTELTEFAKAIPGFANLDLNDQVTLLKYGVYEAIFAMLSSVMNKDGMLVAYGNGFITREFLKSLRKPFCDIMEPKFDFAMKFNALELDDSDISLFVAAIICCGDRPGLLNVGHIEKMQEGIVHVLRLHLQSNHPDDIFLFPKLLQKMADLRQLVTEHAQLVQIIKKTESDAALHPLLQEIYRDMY

Opioid δ = Opioid δ (Homo sapiens, UniProt P41143); experiment: Opioid δ antagonist; type: biochemical
Method: as §1

Opioid μ = Opioid μ (Homo sapiens, UniProt P35372); experiment: Opioid μ antagonist; type: biochemical
Method: as §1

CYP3A4, sequence (P08684 whole entry): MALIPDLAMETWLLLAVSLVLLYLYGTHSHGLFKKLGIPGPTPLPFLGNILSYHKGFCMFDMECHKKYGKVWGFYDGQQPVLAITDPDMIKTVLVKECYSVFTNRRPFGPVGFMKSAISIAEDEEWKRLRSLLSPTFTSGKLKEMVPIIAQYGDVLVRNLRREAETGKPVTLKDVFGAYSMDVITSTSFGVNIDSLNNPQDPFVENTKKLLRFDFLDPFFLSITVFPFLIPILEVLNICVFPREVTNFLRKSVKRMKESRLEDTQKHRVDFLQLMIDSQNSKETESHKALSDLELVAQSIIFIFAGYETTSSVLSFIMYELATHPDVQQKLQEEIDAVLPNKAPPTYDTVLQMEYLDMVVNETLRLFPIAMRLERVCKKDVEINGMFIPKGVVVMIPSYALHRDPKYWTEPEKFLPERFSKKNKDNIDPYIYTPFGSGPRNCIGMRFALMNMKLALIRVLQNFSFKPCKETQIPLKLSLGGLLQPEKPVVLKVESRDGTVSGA
hERG, sequence (Q12809 whole entry): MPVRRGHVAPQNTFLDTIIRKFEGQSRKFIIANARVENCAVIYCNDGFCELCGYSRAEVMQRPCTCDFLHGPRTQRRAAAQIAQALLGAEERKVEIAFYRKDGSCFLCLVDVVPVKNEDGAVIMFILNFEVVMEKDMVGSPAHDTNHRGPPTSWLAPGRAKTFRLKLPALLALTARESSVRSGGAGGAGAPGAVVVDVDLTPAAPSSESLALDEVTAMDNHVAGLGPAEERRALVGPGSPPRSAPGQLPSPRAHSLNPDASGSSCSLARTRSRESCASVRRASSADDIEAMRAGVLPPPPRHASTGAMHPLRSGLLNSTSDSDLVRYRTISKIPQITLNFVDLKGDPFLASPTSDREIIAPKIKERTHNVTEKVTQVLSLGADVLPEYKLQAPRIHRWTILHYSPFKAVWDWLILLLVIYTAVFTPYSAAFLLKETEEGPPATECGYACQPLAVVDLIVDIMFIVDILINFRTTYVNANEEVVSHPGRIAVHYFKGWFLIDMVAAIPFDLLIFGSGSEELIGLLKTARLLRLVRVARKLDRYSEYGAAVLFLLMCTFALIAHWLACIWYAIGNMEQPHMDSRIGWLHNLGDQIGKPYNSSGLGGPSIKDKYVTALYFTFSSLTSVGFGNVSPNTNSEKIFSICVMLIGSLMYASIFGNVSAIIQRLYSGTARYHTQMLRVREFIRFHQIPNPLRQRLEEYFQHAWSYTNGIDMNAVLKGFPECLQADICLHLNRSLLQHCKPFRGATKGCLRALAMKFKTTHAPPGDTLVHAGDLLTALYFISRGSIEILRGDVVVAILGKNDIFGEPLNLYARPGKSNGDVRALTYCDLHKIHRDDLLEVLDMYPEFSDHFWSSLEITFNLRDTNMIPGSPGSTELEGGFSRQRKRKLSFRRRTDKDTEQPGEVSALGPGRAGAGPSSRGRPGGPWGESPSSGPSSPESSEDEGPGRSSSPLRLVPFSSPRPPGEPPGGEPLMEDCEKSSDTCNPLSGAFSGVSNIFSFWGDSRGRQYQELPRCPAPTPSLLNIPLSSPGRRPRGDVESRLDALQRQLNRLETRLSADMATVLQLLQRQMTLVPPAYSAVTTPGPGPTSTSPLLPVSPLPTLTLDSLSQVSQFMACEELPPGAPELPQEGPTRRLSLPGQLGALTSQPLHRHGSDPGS
Dopamine D3, sequence (P35462 whole entry): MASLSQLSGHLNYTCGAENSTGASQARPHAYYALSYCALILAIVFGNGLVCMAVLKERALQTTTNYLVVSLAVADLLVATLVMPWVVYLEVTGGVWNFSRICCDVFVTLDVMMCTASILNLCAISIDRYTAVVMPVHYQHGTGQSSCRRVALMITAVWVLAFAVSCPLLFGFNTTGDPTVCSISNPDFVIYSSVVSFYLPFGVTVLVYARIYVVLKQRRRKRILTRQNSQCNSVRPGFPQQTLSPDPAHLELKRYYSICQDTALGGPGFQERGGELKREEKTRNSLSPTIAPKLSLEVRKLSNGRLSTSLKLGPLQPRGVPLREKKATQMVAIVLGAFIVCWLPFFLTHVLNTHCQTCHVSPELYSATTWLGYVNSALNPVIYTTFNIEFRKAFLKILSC
Opioid δ, sequence (P41143 whole entry): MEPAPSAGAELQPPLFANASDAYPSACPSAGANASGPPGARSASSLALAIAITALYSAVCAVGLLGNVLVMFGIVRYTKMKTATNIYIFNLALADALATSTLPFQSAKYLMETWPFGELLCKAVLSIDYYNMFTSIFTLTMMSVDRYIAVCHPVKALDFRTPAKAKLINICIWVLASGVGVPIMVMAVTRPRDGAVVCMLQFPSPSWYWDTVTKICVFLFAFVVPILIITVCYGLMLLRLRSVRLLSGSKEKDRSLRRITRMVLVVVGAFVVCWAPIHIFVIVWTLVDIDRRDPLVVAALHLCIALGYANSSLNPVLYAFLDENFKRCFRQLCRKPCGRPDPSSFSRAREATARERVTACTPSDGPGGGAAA
Opioid μ, sequence (P35372 whole entry): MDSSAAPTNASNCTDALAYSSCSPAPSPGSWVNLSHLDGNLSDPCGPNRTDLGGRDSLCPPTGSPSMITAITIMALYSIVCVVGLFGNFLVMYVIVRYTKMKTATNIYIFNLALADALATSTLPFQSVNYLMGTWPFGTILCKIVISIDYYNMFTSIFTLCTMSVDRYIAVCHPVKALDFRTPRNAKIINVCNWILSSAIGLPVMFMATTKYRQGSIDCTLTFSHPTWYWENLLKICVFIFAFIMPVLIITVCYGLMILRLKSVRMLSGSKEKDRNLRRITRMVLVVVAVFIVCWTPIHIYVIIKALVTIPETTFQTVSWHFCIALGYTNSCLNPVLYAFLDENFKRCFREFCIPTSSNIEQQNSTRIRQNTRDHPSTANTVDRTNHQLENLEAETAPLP
Dopamine D2, sequence (P14416 whole entry): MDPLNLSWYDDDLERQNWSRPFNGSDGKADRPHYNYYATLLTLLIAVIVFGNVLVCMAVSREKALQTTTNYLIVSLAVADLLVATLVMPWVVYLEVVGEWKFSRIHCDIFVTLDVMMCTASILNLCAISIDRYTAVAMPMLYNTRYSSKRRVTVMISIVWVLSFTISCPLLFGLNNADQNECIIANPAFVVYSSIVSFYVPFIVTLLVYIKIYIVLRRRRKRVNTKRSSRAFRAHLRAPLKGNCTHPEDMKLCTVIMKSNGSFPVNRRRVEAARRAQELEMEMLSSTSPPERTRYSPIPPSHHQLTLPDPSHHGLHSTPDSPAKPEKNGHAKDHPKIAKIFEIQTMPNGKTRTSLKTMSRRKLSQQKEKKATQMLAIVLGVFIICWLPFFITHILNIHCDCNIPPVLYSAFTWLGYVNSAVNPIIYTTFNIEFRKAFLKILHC

solubility (Solubility pH = 6.8) [µM] | solubility [1] [µM] | IC50 (CYP3A4) [µM] | logD (LogD) | PAMPA [2] | RLM Cl (RLM Cl) [mL/min/kg] | IC50 (Dopamine D3) [µM] | IC50 (Dopamine D2) [µM] | IC50 (CDK2) [µM] | IC50 (PPARγ) [µM] | IC50 (PPARδ) [µM] | IC50 (PPARα) [µM] | IC50 (PPARδ; antagonist, read-out: PPARδ antagonist IC50) [µM] | IC50 (Opioid δ) [µM] | IC50 (Opioid μ) [µM] | SMILES | IC50 (hERG) [µM]
890 (≈ 189 µg/mL) | 840 (≈ 178 µg/mL) | – | – | – | – | – | – | – | – | – | – | – | – | – | O=C(O)Cc1ccc(-c2ccccc2)cc1 | –
> 1000 | 790 (≈ 168 µg/mL) | > 20 | – | – | – | – | – | – | – | – | – | – | – | – | O=C(O)Cc1ccc(B2C=CC=CN2)cc1 | > 30
13 (≈ 4.63 µg/mL) | 27 (≈ 9.62 µg/mL) | > 20 | 4.4 | −3.6 | 43.7 | – | – | – | – | – | – | – | – | – | O=C(NC1CCN(Cc2ccccc2)C1)c1ccc(-c2ccccc2)cc1 (stereo not shown) | 0.32
> 30 | 597 (≈ 213 µg/mL) | > 20 | 4.1 | −4.8 | 48.5 | – | – | – | – | – | – | – | – | – | O=C(NC1CCN(Cc2ccccc2)C1)c1ccc(B2C=CC=CN2)cc1 (stereo not shown) | 1.4
< 5 | 21 (≈ 9.32 µg/mL) | > 20 | 4.2 | −3.9 | 51.4 | 0.003 | – | – | – | – | – | – | – | – | COc1ccccc1N1CCN(CCCCNC(=O)c2ccc(-c3ccccc3)cc2)CC1 | 0.042
46 (≈ 20.4 µg/mL) | 220 (≈ 97.8 µg/mL) | 11 | 4.1 | −4.3 | >53 | 0.004 | 0.52 | – | – | – | – | – | – | – | COc1ccccc1N1CCN(CCCCNC(=O)c2ccc(B3C=CC=CN3)cc2)CC1 | 0.17
– | – | > 20 | > 5 | −4.1 | 46.4 | – | – | – | – | – | – | – | – | – | COc1ccc2[nH]cc(CCNC(=O)c3ccc(-c4ccccc4)cc3)c2c1 | 11
– | – | 17 | 5 | −4.2 | 51.3 | – | – | – | – | – | – | – | – | – | COc1ccc2[nH]cc(CCNC(=O)c3ccc(B4C=CC=CN4)cc3)c2c1 | 7.9
88 (≈ 25.4 µg/mL) | 130 (≈ 37.6 µg/mL) | 8.6 | 3.2 | −4.6 | 39.6 | – | – | – | – | – | – | – | – | – | O=C(NCc1ccncc1)c1ccc(B2C=CC=CN2)cc1 | > 30
< 5 | < 5 | > 20 | > 5 | −4.5 | 48.6 | – | – | – | – | – | – | – | – | – | CN(CCc1c[nH]c2ccccc12)C(=O)c1ccc(-c2ccccc2)cc1 | > 30
< 5 | 13 (≈ 4.62 µg/mL) | > 20 | 4.6 | −4.2 | 52.4 | – | – | – | – | – | – | – | – | – | CN(CCc1c[nH]c2ccccc12)C(=O)c1ccc(B2C=CC=CN2)cc1 | 5.8
< 4 | 13 | > 20 | 4.2 | −3.9 | 50 | – | – | – | – | – | – | – | – | – | Cl.O=C(Cc1ccc(-c2ccccc2)cc1)Nc1cc(C2CC2)n[nH]1 | > 30
– | – | 7.8 | – | – | – | – | – | 0.24 | – | – | – | – | – | – | O=C(Cc1ccc(B2C=CC=CN2)cc1)Nc1cc(C2CC2)[nH]n1 | > 30
< 4 | < 4 | > 20 | 3.5 | −4.2 | 38.7 | – | – | – | 1.4 | 3.9 | – | – | – | – | O=C(NCCS(=O)(=O)c1ccc(C(F)(F)F)cn1)c1ccc(-c2ccccc2)cc1 | > 20
< 4 | 6 (≈ 2.62 µg/mL) | > 20 | 3.5 | −4.5 | >53 | – | – | – | 4.8 | – | 0.052 | 1.4 | – | – | O=C(NCCS(=O)(=O)c1ccc(C(F)(F)F)cn1)c1ccc(B2C=CCCN2)cc1 | > 30
50 (≈ 22.9 µg/mL) | 349 (≈ 160 µg/mL) | > 20 | 5.2 | −5.7 | >53 | – | – | – | – | – | – | – | > 30 | 7.4 | CC(C)[C@@H](CN1CCN(c2cccc(O)c2)[C@@H](C)C1)NC(=O)c1ccc(-c2ccccc2)cc1 | > 30
26 (≈ 12 µg/mL) | 119 (≈ 54.8 µg/mL) | 16 | 4.9 | −5.0 | >53 | – | – | – | – | – | – | – | > 14 | 1 | CC(C)[C@@H](CN1CCN(c2cccc(O)c2)[C@@H](C)C1)NC(=O)c1ccc(B2C=CCCN2)cc1 | 9.1
